Data: ChEMBL document CHEMBL1909046, “DrugMatrix in vitro pharmacology data”

Legend:
Neutrophil elastase = biological target: T1, Neutrophil elastase (Homo sapiens, UniProt P08246); assay type: tissue-based;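 further: inhibition of neutrophil elastase enzyme activity, measured with a p-nitroanilide-linked peptide substrate; in other assays of this panel Not Active means under 50% inhibition at 10 µM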
T1 sequence (P08246 whole entry): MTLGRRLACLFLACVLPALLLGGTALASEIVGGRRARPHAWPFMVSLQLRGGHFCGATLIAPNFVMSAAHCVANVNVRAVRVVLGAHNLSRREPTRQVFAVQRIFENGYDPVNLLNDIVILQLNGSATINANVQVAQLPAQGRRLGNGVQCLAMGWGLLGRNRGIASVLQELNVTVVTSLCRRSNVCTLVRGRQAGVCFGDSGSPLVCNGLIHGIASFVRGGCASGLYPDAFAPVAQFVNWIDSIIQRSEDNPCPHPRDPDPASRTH

[1] = biological target: T2, Neuropeptide Y receptor type 2 (Homo sapiens, UniProt P49146); assay type: cell membranes, Membrane; settings: kan-ts; further: in other assays of this panel Not Active means under 50% inhibition at 10 µM
T2 sequence (P49146 whole entry): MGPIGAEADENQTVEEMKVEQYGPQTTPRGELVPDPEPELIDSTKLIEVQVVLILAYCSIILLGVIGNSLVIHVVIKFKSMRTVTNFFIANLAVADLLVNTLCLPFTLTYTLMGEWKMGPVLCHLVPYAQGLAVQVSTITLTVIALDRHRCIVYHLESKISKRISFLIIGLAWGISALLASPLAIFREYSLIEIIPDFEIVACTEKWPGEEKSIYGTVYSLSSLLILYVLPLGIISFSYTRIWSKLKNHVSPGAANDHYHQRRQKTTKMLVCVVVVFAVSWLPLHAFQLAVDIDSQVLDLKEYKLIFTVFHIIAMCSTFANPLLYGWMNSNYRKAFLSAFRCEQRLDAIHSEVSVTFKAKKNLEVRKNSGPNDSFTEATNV

[2] = biological target: T3, Alpha-2C adrenergic receptor (Homo sapiens, UniProt P18825); test: DRUGMATRIX: Adrenergic Alpha-2C radioligand binding (ligand: [3H] MK-912); assay type: cell membranes, Sf9, Membrane; settings: for Ki: read-out: Ki
T3 sequence (P18825 whole entry): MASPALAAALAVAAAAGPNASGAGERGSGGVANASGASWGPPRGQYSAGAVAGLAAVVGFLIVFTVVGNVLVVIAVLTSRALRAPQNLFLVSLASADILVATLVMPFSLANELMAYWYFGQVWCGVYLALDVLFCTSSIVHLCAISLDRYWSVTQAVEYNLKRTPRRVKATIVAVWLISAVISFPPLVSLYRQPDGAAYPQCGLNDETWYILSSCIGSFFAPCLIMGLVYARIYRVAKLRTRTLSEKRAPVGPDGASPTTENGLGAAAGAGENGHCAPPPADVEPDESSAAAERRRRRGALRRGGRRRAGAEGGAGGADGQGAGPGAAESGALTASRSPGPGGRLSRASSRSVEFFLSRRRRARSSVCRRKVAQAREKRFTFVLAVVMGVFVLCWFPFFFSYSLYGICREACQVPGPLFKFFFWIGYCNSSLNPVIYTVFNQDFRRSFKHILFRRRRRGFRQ

[3] = DRUGMATRIX: Calcium Channel Type L, Benzothiazepine radioligand binding (ligand: [3H] Diltiazem); assay type: cell membranes, Rattus norvegicus, Wistar, Brain, Membrane; settings: Not Active = under 50% inhibition at 10 µM
[4] = biological target: T4, C-C chemokine receptor type 4 (Homo sapiens, UniProt P51679); assay type: cell membranes, Chem-1, Membrane; settings: chem-1; further: in other assays of this panel Not Active means under 50% inhibition at 10 µM
T4 sequence (P51679 whole entry): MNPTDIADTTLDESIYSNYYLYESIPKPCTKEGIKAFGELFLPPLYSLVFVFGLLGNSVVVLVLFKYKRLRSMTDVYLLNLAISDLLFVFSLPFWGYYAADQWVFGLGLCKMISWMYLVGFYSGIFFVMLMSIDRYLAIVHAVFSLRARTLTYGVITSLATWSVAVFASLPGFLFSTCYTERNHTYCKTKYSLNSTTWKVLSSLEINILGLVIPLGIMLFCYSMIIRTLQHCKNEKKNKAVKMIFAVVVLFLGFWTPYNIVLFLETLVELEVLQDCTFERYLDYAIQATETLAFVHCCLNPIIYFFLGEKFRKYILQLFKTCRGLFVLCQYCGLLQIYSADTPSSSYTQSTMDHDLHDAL

[5] = biological target: T5, Polyunsaturated fatty acid lipoxygenase ALOX15 (Oryctolagus cuniculus, UniProt P12530); test: biochemical; assay type: tissue-based, Reticulocytes;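 further: inhibition of 15-lipoxygenase enzyme activity measured with linoleic acid as the substrate; in other assays of this panel Not Active means under 50% inhibition at 10 µM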
T5 sequence (P12530 whole entry): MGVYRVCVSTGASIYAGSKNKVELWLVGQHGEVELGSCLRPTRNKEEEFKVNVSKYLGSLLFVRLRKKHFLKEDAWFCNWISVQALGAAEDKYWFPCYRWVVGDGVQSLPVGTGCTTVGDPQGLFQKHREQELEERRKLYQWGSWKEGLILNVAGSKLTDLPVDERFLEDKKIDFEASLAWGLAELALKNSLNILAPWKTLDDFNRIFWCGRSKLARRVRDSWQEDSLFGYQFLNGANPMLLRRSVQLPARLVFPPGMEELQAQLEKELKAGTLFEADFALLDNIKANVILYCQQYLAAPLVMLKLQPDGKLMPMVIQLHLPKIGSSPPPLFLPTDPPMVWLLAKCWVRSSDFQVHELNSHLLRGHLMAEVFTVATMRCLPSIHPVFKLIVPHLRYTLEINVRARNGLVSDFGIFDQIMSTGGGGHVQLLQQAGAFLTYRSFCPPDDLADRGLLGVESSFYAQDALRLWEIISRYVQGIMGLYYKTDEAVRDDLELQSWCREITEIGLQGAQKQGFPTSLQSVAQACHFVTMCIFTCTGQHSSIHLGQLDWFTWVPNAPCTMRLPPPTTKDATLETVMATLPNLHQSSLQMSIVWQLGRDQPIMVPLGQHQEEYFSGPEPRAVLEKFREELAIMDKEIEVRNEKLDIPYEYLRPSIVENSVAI

[6] = biological target: Protein kinase C alpha type (Homo sapiens, UniProt P17252); assay type: cell-based; settings: sf9

SMILES	IC50 (Neutrophil elastase)	IC50 [1]	IC50 ([2]; sf9)	IC50 [3]	Ki [3]	IC50 [4]	IC50 ([5]; reticulocytes)	IC50 [6]	IC50 ([2]; read-out: IC50) [nM]	Ki [2] [nM]	IC50 ([5]; read-out: IC50) [nM]
C[C@H]1O[C@@H](O[C@H]2[C@@H](O)C[C@H](O[C@H]3[C@@H](O)C[C@H](O[C@H]4CC[C@@]5(C)[C@H](CC[C@@H]6[C@@H]5C[C@@H](O)[C@]5(C)[C@@H](C7=CC(=O)OC7)CC[C@]65O)C4)O[C@@H]3C)O[C@@H]2C)C[C@H](O)[C@@H]1O [DIGOXIN]	Not Active	Not Active	Not Active	Not Active	Not Active	Not Active	Not Active	Not Active			
CC(C)[C@@]1(NC(=O)[C@@H]2C[C@@H]3c4cccc5[nH]cc(c45)C[C@H]3N(C)C2)O[C@@]2(O)[C@@H]3CCCN3C(=O)[C@H](Cc3ccccc3)N2C1=O.CS(=O)(=O)O [DIHYDROERGOCRISTINE MESYLATE]	Not Active	Not Active		Not Active	Not Active	Not Active	Not Active	Not Active	8.65	1.26	
CC(=O)O[C@@]12CO[C@@H]1C[C@H](O)[C@@]1(C)C(=O)[C@H](O)C3=C(C)[C@@H](OC(=O)[C@H](O)[C@@H](NC(=O)OC(C)(C)C)c4ccccc4)C[C@@](O)([C@@H](OC(=O)c4ccccc4)[C@H]21)C3(C)C.O.O.O [DOCETAXEL]	Not Active	Not Active	Not Active	Not Active	Not Active	Not Active	Not Active	Not Active			
COc1cc2nc(N3CCN(C(=O)C4COc5ccccc5O4)CC3)nc(N)c2cc1OC (stereo not given) [DOXAZOSIN]	Not Active	Not Active	Not Active	Not Active	Not Active	Not Active	Not Active	Not Active			
C[C@H]1c2cccc(O)c2C(=O)C2=C(O)[C@]3(O)C(=O)C(C(N)=O)=C(O)[C@@H](N(C)C)[C@@H]3[C@@H](O)[C@@H]21.O [DOXYCYCLINE]	Not Active	Not Active	Not Active	Not Active	Not Active	Not Active	Not Active	Not Active			
O=C(CCCN1CC=C(n2c(=O)[nH]c3ccccc32)CC1)c1ccc(F)cc1 [DROPERIDOL]	Not Active	Not Active		Not Active	Not Active	Not Active	Not Active	Not Active	1760	256	
CC(C)[C@H]1C(=O)N2CCC[C@H]2[C@]2(O)O[C@](NC(=O)[C@@H]3C=C4c5cccc6[nH]cc(c56)C[C@H]4N(C)C3)(C(C)C)C(=O)N12 [ERGOCORNINE]	Not Active	Not Active		Not Active	Not Active	Not Active	Not Active	Not Active	17	2.41	
C[C@]12CC[C@@H]3c4ccc(O)cc4CC[C@H]3[C@@H]1CCC2=O [ESTRONE]	Not Active	Not Active	Not Active	Not Active	Not Active	Not Active		Not Active			6590
OC(Cn1cncn1)(Cn1cncn1)c1ccc(F)cc1F [FLUCONAZOLE]	Not Active	Not Active	Not Active	Not Active	Not Active	Not Active	Not Active	Not Active			
